Laboratory results as given in ChEMBL document CHEMBL4190372, “Discovery of a Novel Oral Glucocorticoid Receptor Modulator (AZD9567) with Improved Side Effect Profile” (J Med Chem, 2018).

Legend:
Glucocorticoid receptor [1] = target: T1, Glucocorticoid receptor (Homo sapiens, UniProt P04150); test: Transactivation of GR in cryopreserved human primary hepatocytes assessed as upregulation of TAT mRNA expression level up to 1 uM after 18 hrs by RT-qPCR analysis
T1 sequence (P04150 whole entry): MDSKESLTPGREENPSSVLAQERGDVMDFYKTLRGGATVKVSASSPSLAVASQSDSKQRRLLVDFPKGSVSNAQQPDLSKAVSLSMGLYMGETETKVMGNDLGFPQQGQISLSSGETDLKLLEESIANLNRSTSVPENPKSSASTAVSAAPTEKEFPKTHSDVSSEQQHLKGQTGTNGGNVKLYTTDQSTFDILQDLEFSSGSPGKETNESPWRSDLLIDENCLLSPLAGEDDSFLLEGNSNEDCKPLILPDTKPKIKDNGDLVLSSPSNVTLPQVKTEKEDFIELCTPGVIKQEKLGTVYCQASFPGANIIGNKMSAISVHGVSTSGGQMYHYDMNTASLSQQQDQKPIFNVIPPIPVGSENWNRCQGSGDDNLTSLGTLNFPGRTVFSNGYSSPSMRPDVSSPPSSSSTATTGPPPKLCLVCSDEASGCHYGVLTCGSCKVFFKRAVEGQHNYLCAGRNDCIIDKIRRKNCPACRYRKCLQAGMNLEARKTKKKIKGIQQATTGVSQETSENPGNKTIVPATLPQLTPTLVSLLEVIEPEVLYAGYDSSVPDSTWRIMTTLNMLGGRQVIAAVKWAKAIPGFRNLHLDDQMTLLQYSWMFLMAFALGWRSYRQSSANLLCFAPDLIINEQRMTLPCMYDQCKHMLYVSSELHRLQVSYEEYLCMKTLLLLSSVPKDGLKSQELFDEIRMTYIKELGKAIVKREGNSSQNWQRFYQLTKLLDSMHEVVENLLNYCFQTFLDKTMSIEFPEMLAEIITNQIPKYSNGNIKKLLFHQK

[2] = Terminal half life in Han-Wistar rat at 0.8 mg/kg, iv; assay type: ADME, organism-based; conditions: in vivo, read-out: beta t1/2 (converted)
[3] = Volume of distribution at steady state in Han-Wistar rat at 0.8 mg/kg, iv; assay type: ADME, organism-based; conditions: in vivo, read-out: Vdss
[4] = target: T2, Glucocorticoid receptor (Homo sapiens) (UniProt P04150)
T2 sequence (whole entry): T1 sequence (P04150 whole entry)
Description: Transrepression of GR in human whole blood assessed as inhibition of LPS-induced TNF-alpha release preincubated for 45 mins followed by LPS addition after 18 hrs by AlphaLISA method

[5] = Cmax in Han-Wistar rat plasma at 0.8 mg/kg, po; assay type: ADME, organism-based; set-up: dose 0.8 mg/kg, route oral
[6] = target: T3, Mineralocorticoid receptor (Homo sapiens, UniProt P08235); test: Displacement of [3H]-aldosterone from human mineralocorticoid receptor LBD (729 to 984 residues) after 1 hr by scintillation proximity assay
T3 sequence (P08235 whole entry): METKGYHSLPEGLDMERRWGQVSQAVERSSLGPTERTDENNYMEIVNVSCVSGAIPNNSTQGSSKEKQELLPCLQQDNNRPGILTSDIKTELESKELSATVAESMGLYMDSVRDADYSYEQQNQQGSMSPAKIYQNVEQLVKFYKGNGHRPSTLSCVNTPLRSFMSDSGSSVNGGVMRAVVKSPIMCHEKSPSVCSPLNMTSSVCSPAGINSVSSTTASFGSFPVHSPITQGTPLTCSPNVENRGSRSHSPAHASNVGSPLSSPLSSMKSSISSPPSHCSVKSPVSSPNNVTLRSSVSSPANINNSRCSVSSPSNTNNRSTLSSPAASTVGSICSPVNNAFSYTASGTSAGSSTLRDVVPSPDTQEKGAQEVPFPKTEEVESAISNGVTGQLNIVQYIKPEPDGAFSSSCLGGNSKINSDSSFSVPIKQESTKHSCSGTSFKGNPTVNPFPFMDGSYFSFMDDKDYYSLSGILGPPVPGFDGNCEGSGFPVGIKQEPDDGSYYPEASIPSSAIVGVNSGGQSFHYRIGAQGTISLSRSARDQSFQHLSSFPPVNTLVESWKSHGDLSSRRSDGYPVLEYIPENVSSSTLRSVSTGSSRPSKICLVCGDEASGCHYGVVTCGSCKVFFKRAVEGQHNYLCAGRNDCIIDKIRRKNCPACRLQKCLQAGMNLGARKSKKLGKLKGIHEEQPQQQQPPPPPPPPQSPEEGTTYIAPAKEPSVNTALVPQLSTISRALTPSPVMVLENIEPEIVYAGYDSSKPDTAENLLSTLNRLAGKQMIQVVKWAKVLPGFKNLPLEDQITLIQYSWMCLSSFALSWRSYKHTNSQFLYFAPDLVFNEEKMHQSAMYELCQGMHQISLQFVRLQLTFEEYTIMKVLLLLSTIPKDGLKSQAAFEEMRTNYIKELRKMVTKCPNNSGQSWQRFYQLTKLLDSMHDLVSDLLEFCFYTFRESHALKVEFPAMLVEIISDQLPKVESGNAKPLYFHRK

Glucocorticoid receptor [7] = target: T4, Glucocorticoid receptor (Rattus norvegicus, UniProt P06536); test: Modulation of glucocorticoid receptor in rat whole blood
T4 sequence (P06536 whole entry): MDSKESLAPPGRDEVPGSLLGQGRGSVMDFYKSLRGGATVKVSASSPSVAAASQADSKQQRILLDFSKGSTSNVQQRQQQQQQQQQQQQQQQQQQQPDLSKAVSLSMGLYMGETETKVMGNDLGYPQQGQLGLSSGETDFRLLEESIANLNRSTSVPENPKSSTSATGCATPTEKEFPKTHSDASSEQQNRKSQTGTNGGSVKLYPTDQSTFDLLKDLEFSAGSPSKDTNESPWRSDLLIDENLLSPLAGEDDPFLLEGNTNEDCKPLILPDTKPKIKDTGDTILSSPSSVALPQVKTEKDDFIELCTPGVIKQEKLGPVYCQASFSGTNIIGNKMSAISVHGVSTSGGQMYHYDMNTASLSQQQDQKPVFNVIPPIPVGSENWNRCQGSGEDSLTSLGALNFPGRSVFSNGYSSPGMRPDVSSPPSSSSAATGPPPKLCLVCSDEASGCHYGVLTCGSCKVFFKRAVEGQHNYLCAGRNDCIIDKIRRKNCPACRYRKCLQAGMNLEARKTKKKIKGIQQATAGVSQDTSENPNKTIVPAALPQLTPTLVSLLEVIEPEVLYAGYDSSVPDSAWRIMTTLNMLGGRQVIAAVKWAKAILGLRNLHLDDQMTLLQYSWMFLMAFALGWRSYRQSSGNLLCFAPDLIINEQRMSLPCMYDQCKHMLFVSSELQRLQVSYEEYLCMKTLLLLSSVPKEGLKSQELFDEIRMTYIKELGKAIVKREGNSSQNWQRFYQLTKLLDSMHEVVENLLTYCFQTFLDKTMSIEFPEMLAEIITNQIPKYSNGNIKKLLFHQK

Rattus norvegicus = test: Dose normalized Cmax in Han-Wistar rat at 2.1 mg/kg, po; assay type: ADME, organism-based; conditions: in vivo
Glucocorticoid receptor [8] = target: T1, Glucocorticoid receptor
Description: Transrepression activity at glucocorticoid receptor (unknown origin) expressed in human ChaGoK1 cells assessed as inhibition of PMA-stimulated gene expression incubated for 24 hrs by beta-galactosidase reporter gene assay

Estrogen receptor beta = Estrogen receptor beta (Homo sapiens, UniProt Q92731); test: Binding affinity to human ERbeta expressed in Sf9 cells by fluoligand binding-based fluorescence polarization method
Estrogen receptor beta, sequence (Q92731 whole entry): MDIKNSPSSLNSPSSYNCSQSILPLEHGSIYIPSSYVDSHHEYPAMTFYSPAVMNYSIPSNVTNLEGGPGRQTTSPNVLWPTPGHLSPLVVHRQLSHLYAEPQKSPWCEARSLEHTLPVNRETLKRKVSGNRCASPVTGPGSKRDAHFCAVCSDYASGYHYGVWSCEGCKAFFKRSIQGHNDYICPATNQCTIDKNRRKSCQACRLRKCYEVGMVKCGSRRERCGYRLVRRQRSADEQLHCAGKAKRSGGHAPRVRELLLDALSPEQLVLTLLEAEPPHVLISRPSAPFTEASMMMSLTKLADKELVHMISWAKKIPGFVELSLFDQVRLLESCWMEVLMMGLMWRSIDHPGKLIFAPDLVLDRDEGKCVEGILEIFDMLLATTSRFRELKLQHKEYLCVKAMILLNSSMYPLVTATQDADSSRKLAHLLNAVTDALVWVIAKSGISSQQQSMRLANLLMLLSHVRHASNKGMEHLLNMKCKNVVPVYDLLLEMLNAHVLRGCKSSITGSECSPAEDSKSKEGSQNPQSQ

Glucocorticoid receptor [9] = target: T1, Glucocorticoid receptor; test: Displacement of fluormone RED from human full length glucocorticoid receptor after 4 hrs by fluorescence polarization assay

Activity (Glucocorticoid receptor [1]): Not Active
half-life [2]: 2.3 h
Vd [3]: 0.66 L/kg
fIC30 [4]: 1.4 nM
Cmax [5]: 2000 nM
IC50 [6]: > 38000 nM
IC50 (Glucocorticoid receptor [7]): 19 nM
Cmax/dose (Rattus norvegicus): 950 nM
IC50 (Glucocorticoid receptor [8]): 7 nM
IC50 (Estrogen receptor beta): > 100000 nM
IC50 (Glucocorticoid receptor [9]): 3.8 nM
Compound: CC(C)[C@H](NC(=O)C(C)(F)F)[C@H](Oc1ccc2c(cnn2-c2ccc(=O)n(C)c2)c1)c1ccccc1 [MIZACORAT]
